In paper PMC5557014 (Biochemical pharmacology, 2017):
Read-outs that look alike come from different tables or passages of the source.

Legend:
[1] = tested on: HIV-1 RT L100I; conditions: Poly rC.dG [^3H]dGTP
[2] = tested on: HIV-1 RT V106A; conditions: Poly rC.dG [^3H]dGTP
[3] = tested on: HIV-1 RT Y181C; conditions: Poly rC.dG [^3H]dGTP
[4] = biological target: cellular DNA polymerase β (Homo sapiens, UniProt P06746); assay: Cellular DNA polymerase β assay; format: biochemical
[5] = biological target: T1, HSV-1 DNA polymerase (Human herpesvirus 1, UniProt P04293); assay: biochemical; format: biochemical; conditions: varying dGTP, calf thymus DNA
[6] = tested on: HIV-1 RT M184V + Y115F; assay: Mutant HIV-1 RT assay M184V + Y115F; format: biochemical; conditions: Poly rC.dG [^3H]dGTP
[7] = biological target: T2, HIV-1 RT (Human immunodeficiency virus type 1 group M subtype B, UniProt P04585); assay: Site-specific Fe2+ footprinting, post-translocation trapping; format: binding
[8] = tested on: HIV-1 RT K65R; assay: Mutant HIV-1 RT assay K65R; format: biochemical; conditions: Poly rC.dG [^3H]dGTP
[9] = biological target: T3, HCMV DNA polymerase (Human cytomegalovirus, UniProt P08546); assay: Kinetic analysis of HCMV DNA polymerase inhibition; format: biochemical; conditions: varying dGTP, calf thymus DNA
[10] = biological target: T1, HSV-1 DNA polymerase; assay: HSV-1 DNA polymerase enzyme assay; format: biochemical; conditions: calf thymus DNA
[11] = biological target: T4, cellular DNA polymerase α (Homo sapiens, UniProt P09884); assay: Cellular DNA polymerase α assay; format: biochemical
T4 sequence (P09884 1-1462): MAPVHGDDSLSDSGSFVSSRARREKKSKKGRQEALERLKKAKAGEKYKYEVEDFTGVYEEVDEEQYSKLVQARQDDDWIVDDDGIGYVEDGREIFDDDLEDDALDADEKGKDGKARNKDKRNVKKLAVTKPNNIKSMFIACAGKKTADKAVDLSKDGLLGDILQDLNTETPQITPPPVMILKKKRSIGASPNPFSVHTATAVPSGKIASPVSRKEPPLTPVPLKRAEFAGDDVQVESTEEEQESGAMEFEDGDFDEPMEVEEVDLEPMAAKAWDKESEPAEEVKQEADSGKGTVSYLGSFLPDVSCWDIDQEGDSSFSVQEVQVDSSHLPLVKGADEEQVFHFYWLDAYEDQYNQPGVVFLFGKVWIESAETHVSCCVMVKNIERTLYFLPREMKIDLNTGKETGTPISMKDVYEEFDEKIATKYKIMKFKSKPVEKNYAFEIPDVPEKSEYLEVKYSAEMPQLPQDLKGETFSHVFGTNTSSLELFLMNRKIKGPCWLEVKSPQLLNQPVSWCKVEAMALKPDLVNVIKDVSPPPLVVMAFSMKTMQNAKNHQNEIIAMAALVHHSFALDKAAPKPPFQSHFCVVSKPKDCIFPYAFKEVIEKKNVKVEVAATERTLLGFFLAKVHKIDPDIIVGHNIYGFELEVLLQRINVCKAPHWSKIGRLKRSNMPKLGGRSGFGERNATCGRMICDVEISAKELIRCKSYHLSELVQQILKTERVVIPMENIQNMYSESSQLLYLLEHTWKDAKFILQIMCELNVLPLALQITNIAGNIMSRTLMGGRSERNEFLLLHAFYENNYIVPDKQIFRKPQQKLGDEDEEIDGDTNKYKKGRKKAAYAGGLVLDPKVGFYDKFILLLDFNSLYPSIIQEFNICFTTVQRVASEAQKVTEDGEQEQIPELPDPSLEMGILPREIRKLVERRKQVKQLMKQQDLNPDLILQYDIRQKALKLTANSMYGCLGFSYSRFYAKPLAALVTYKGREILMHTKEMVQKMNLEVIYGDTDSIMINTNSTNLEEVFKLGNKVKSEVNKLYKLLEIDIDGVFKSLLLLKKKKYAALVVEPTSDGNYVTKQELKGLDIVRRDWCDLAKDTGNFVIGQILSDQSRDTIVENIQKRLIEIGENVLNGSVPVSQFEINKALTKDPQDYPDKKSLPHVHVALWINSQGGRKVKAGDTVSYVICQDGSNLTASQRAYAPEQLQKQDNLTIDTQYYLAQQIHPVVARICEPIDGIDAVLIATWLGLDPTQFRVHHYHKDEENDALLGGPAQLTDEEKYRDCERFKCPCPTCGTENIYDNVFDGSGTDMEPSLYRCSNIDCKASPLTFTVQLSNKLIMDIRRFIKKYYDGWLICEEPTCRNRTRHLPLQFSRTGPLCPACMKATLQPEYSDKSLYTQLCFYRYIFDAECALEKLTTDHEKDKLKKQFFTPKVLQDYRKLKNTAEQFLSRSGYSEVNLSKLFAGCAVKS

[12] = tested on: HIV-1 RT M184V; assay: Mutant HIV-1 RT assay M184V; format: biochemical; conditions: Poly rC.dG [^3H]dGTP
[13] = tested on: HIV-1 RT M184I; assay: Mutant HIV-1 RT assay M184I; format: biochemical; conditions: Poly rC.dG [^3H]dGTP
[14] = tested on: HIV-1 RT E138K; assay: Mutant HIV-1 RT assay E138K; format: biochemical; conditions: Poly rC.dG [^3H]dGTP
[15] = tested on: HIV-1 RT F61A; assay: Mutant HIV-1 RT assay F61A; format: biochemical; conditions: Poly rC.dG [^3H]dGTP
[16] = tested on: HIV-1 RT K103N; conditions: Poly rC.dG [^3H]dGTP
[17] = tested on: HIV-1 RT K70E; assay: Mutant HIV-1 RT assay K70E; format: biochemical; conditions: Poly rC.dG [^3H]dGTP
[18] = tested on: HIV-1 RT Q151M; assay: Mutant HIV-1 RT assay Q151M; format: biochemical; conditions: Poly rC.dG [^3H]dGTP
[19] = tested on: HIV-1 RT V75I; assay: Mutant HIV-1 RT assay V75I; format: biochemical; conditions: Poly rC.dG [^3H]dGTP
[20] = biological target: T3, HCMV DNA polymerase; assay: HCMV DNA polymerase enzyme assay; format: biochemical; conditions: calf thymus DNA
[21] = tested on: HIV-1 RT Y115F; assay: Mutant HIV-1 RT assay Y115F; format: biochemical; conditions: Poly rC.dG [^3H]dGTP
[22] = tested on: HIV-1 RT K70R; assay: Mutant HIV-1 RT assay K70R; format: biochemical; conditions: Poly rC.dG [^3H]dGTP
[23] = tested on: HIV-1 RT M184V + E138K; assay: Mutant HIV-1 RT assay M184V + E138K; format: biochemical; conditions: Poly rC.dG [^3H]dGTP
[24] = biological target: T2, HIV-1 RT; assay: HIV-1 RT assay with homopolymeric template/primers; format: biochemical
[25] = biological target: T2, HIV-1 RT; assay: Kinetic analysis of HIV-1 RT inhibition; format: biochemical
[26] = biological target: T2, HIV-1 RT; assay: Gel-based HIV-1 RT-catalyzed DNA synthesis on heteropolymeric DNA; format: biochemical
[27] = tested on: HIV-1 RT K70Q; assay: Mutant HIV-1 RT assay K70Q; format: biochemical; conditions: Poly rC.dG [^3H]dGTP

T3 sequence (P08546 whole entry): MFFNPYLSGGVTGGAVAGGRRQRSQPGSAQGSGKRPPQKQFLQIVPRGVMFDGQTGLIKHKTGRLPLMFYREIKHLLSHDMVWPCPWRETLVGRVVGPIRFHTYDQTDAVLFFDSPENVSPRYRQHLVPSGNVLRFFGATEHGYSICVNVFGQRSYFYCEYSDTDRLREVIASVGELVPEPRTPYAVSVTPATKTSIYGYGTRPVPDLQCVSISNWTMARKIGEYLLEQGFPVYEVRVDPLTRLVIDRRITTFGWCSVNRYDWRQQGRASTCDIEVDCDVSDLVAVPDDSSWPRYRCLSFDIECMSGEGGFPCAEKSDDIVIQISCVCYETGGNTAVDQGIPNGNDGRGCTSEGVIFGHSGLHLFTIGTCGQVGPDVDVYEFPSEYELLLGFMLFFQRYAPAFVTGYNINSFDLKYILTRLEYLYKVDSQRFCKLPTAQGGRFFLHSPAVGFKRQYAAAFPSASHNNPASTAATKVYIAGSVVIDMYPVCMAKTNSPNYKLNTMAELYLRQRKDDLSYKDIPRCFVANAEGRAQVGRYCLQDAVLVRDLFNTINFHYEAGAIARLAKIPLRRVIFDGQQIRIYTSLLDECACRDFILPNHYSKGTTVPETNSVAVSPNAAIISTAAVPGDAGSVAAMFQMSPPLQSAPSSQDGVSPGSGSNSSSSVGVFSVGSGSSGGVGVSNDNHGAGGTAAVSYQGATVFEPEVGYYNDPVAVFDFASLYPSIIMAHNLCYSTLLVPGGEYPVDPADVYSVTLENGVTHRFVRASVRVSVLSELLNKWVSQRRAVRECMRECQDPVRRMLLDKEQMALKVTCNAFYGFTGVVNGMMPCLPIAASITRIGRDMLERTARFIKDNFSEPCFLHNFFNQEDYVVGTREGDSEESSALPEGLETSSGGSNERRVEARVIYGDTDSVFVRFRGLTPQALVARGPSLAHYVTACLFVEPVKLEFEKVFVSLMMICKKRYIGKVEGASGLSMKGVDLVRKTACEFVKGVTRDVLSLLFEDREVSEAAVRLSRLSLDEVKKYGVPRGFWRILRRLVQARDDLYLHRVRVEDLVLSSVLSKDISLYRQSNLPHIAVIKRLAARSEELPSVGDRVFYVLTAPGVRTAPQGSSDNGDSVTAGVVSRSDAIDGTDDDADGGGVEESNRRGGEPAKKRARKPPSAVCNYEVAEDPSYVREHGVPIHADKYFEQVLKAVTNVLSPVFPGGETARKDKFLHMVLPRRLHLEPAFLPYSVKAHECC
T1 sequence (P04293 whole entry): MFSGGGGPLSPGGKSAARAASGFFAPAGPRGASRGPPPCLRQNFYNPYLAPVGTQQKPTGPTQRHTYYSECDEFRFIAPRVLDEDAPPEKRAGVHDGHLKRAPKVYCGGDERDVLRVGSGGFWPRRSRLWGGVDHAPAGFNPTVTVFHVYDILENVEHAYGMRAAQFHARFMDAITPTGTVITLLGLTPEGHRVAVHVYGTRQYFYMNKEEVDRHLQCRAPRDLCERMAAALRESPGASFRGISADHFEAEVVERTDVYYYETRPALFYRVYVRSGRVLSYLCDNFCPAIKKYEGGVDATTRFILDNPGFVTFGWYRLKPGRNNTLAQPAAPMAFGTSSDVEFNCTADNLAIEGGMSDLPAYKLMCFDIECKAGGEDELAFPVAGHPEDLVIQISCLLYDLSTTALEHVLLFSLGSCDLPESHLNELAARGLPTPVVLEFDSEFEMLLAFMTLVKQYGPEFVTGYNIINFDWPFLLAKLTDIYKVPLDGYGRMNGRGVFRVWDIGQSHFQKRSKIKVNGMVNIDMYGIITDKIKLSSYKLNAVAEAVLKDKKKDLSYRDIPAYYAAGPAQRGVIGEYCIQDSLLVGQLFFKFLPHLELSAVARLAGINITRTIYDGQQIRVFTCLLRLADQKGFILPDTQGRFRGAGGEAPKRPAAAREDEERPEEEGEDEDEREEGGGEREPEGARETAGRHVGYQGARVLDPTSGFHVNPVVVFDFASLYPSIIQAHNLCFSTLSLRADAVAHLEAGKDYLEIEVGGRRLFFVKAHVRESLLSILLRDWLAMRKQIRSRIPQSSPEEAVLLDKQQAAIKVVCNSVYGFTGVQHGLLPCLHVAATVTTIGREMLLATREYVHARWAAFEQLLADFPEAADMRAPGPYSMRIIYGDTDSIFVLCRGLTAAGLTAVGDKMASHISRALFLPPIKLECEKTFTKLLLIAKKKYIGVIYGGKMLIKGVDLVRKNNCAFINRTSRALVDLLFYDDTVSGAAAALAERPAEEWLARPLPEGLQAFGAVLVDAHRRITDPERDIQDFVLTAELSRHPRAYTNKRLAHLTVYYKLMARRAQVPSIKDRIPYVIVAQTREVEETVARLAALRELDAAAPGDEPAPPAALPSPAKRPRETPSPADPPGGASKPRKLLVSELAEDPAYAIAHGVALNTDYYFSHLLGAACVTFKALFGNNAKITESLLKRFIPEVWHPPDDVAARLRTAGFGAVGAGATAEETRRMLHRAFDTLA

`Nc1nc2c(ncn2[C@@H]2CC[C@H](OC(C(=O)O)P(=O)(O)O)C2)c(=O)[nH]1` (mixture of isomers) [(L,D)-(±)G-α-CNP, cis-9-{4-[Carboxy(phosphono)methoxy]cyclopentan-1-yl}guanine] was tested, and the “Fold-resistance compared to wild-type” value [1] was 5.2 fold, the “Fold-resistance compared to wild-type” value [2] was 1.6 fold and the “Fold-resistance compared to wild-type” value [3] was 5.2 fold. For the same molecule, the IC50 [4] was 531 ± 5 µM, the Ki ([5]; competitive model) was 0.521 µM and the Ki ([5]; mixed model enzyme inhibition) was 9.28 µM. The Ki ([5]; non-competitive model) was 4.17 µM, the “Most likely mode of inhibition” value [5] was “Non-competitive” and the “α (alpha-value), mixed model enzyme inhibition” value [5] was 0.386. The “Fold-resistance compared to wild-type” value [6] was 39 fold, the EC50 [7] was 0.044 ± 0.002 µM and the “Fold-resistance compared to wild-type” value [8] was 2.1 fold. It also gave a Ki ([9]; competitive model) of 2.12 µM, a Ki ([9]; mixed model enzyme inhibition) of 9.2 µM and a Ki ([9]; non-competitive model) of 8.59 µM. For the same molecule, the “Most likely mode of inhibition” value [9] was “Non-competitive”, the “α (alpha-value), mixed model enzyme inhibition” value ([9]; listed as (D,L)-(−,+)-G-α-CNP) was 0.904 and the IC50 ([10]; IC50 HSV-1 DNA pol, [^3H]dGTP) was 8 ± 6 µM. The IC50 ([10]; IC50 HSV-1 DNA pol, [^3H]dTTP) was 32 ± 11 µM, the IC50 [11] was 477 ± 83 µM and the “Fold-resistance compared to wild-type” value [12] was 8.7 fold. The “Fold-resistance compared to wild-type” value [13] was 19 fold, the “Fold-resistance compared to wild-type” value [14] was 0.9 fold and the “Fold-resistance compared to wild-type” value [15] was 79 fold. For the same molecule, the “Fold-resistance compared to wild-type” value [16] was 1.1 fold, the “Fold-resistance compared to wild-type” value [17] was 0.7 fold and the “Fold-resistance compared to wild-type” value [18] was 3.1 fold. For the same molecule, the “Fold-resistance compared to wild-type” value [19] was 8.7 fold, the IC50 ([20]; IC50 HCMV DNA pol, [^3H]dGTP) was 9.4 ± 0.2 µM and the IC50 ([20]; IC50 HCMV DNA pol, [^3H]dTTP) was 16 ± 8 µM. The “Fold-resistance compared to wild-type” value [21] was 2.3 fold, the “Fold-resistance compared to wild-type” value [22] was 2.6 fold and the “Fold-resistance compared to wild-type” value [23] was 6.1 fold. It also gave an IC50 ([24]; IC50 HIV-1 RT, poly rA.dT, [^3H]dTTP) of 536 µM, an IC50 ([24]; IC50 HIV-1 RT, poly rC.dG, [^3H]dGTP) of 0.62 ± 0.19 µM and a Ki ([25]; competitive model, varying dGTP, poly rC.dG) of 0.455 µM. The Ki ([25]; competitive model, varying poly rC.dG) was 0.035 µM, the Ki ([25]; mixed model enzyme inhibition, varying dGTP, poly rC.dG) was 0.944 µM and the Ki ([25]; mixed model enzyme inhibition, varying poly rC.dG) was 0.832 µM. The Ki ([25]; non-competitive model, varying dGTP, poly rC.dG) was 1.3 µM, the Ki ([25]; non-competitive model, varying poly rC.dG) was 0.169 µM and the “Most likely mode of inhibition” value ([25]; varying dGTP, poly rC.dG) was “Competitive”. The “α (alpha-value), mixed model enzyme inhibition” value ([25]; varying dGTP, poly rC.dG) was 1.799, the “Most likely mode of inhibition” value ([25]; varying poly rC.dG) was “Non-competitive” and the “α (alpha-value), mixed model enzyme inhibition” value ([25]; varying poly rC.dG) was 0.147. For the same molecule, the IC50 [26] was 1.8 ± 1.1 µM and the “Fold-resistance compared to wild-type” value [27] was 0.7 fold.
In the case of `Cc1ccnc2c1NC(=O)c1cccnc1N2C1CC1` [Nevirapine], the IC50 [4] is reported as greater than 250 µM, the IC50 ([10]; IC50 HSV-1 DNA pol, [^3H]dGTP) is reported as greater than 100 µM and the IC50 ([10]; IC50 HSV-1 DNA pol, [^3H]dTTP) is reported as greater than 100 µM. It also gave an IC50 [11] greater than 250 µM, an IC50 ([20]; IC50 HCMV DNA pol, [^3H]dGTP) greater than 250 µM and an IC50 ([20]; IC50 HCMV DNA pol, [^3H]dTTP) greater than 250 µM.
`O=C(O)P(=O)(O)O` [PFA] was tested, and the IC50 ([4]; read-out: IC50 β DNA pol, calf thymus DNA, [^3H]dGTP) was greater than 100 µM, the IC50 ([10]; read-out: IC50 HSV-1 DNA pol, [^3H]dGTP) was 1.6 ± 0.8 µM and the IC50 ([10]; read-out: IC50 HSV-1 DNA pol, [^3H]dTTP) was 3.5 ± 1.7 µM. For the same molecule, the IC50 ([11]; read-out: IC50 α DNA pol, calf thymus DNA, [^3H]dGTP) was 56 ± 12 µM, the IC50 ([20]; read-out: IC50 HCMV DNA pol, [^3H]dGTP) was 7 ± 0.7 µM and the IC50 ([20]; read-out: IC50 HCMV DNA pol, [^3H]dTTP) was 9.4 ± 6 µM. For the same molecule, the IC50 ([24]; read-out: IC50 HIV-1 RT, poly rA.dT, [^3H]dTTP) was 0.55 ± 0.01 µM and the IC50 ([24]; read-out: IC50 HIV-1 RT, poly rC.dG, [^3H]dGTP) was 17 ± 2 µM.
